Assay: RP, Waters ACQUITY UPLC HSS T3, 100 × 2.1 mm, 1.8 µm, 0.3 mL/min, estimated dead time 0.73 min; A: water + 0.1% formic acid, pH 3; B: methanol + 0.1% formic acid, pH 3; gradient (min/%B) 0/1 1/15 4/35 7/95 9/95 10/1 14/95
Details: stereoisomer not certain

| Compound | LC retention time [min] |
| --- | --- |
| CSCCC(N)C(=O)O (configuration not stated) [methionine] | 1.21 |
| CC(CCC(=O)NCC(=O)O)C1CCC2C3C(O)CC4CC(O)CCC4(C)C3CC(O)C12C (configuration not stated) [sodium glycocholate hydrate] | 11 |
| CC(C)CC(N)C(=O)O (configuration not stated) [leucine] | 2.53 |
| NC(Cc1c[nH]c2ccccc12)C(=O)O (configuration not stated) [tryptophan] | 5.45 |
| O=c1ccn(C2OC(CO)C(O)C2O)c(=O)[nH]1 (configuration not stated) [uridine] | 2.2 |
| O=C(O)CC(O)(CC(=O)O)C(=O)O [citric acid monohydrate] | 8.41 |
| O=[N+]([O-])c1ccccc1O [2-nitrophenol] | 8.45 |
| CC12CCC3c4ccc(O)cc4CCC3C1CCC2O (configuration not stated) [estradiol] | 19.7 |
| O=C1CC(C(=O)O)NC(=O)N1 [L-dihydroorotic acid] | 1.07 |
| CC(=O)C1CCC2C3CCC4=CC(=O)CCC4(C)C3CCC12C (configuration not stated) [progesterone] | 10.1 |
| Cc1cc2nc3c(=O)[nH]c(=O)nc-3n(CC(O)C(O)C(O)CO)c2cc1C (configuration not stated) [riboflavin] | 7.22 |
| NC(Cc1ccccc1)C(=O)O (configuration not stated) [phenylalanine] | 4.45 |

Reference: the RepoRT retention time repository
